“And” between values parts separate entries of the source, which are not always exact repeats. Equal entries are not always repeated. Where two headings read alike, the source gives them in different places.
How the values were obtained:
[1] = apparently through calcium antagonism; cited from earlier work
P388/DX tumor = test: Combination therapy of adriamycin & 5-N-acetyl-ardeemin or verapamil in B6D2F1 mice bearing P388/DX tumor;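 further: male BDF mice implanted intraperitoneally with P388/DX cells, 10^6 per mouse, dosed from day 1 on a QDX4, QWX2 schedule, five mice per dose group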; details: 5NAc-Ard. 70 mg/kg
From the text: ^a Male BDF mice were inoculated P388/DX, 10^6 cells/mouse, i.p.
starting day 1, QDX4, QWX2. There were five mice at every dose and ten

Solubility = type: physicochemical; details: at concentrations higher than […]
CCRF-CEM/VLB-100 cells = test: Intracellular accumulation of [3H]vinblastine in CCRF-CEM/VLB-100 cells; type: cell-based, human; details: 30 μM
Procedure: (§1) *Cells were preloaded with [^3 H]
(§2) times (or without wash) with 100 ml cold medium to remove extracellular
(§3) with or without a reverse prenyl compound or an MDRreversing agent. Cells
(§4) were then separated from radioactive medium by microfuge oillayer method.
(§5) Extracellular space counts carried down # by cells (^3 HInulin space
(§6) were subtracted from the total radioactive counts.

P388/O tumor = test: Combination therapy of adriamycin & 5-N-acetyl-ardeemin or verapamil in B6D2F1 mice bearing P388/O tumor; details: 5NAc-Ardm 70 mg/kg;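 further: male BDF mice carrying P388/O given intraperitoneally, dosing begun on day 1 on a QDX4, QWX2 schedule, five animals per dose level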
From the text: ^a Male BDF mice were inoculated P388/O, 10^6 cells/mouse, i.p. a
starting day 1, QDX4, QWX2.

CCRF-CEM/VM-1 cells = test: Cytotoxicity toward VM-26-resistant CCRF-CEM/VM-1 cells (mutated Topo II gene); type: cell-based, human; details: Homo sapiens, CCRF-CEM, read-out: IC50 of reversing agent
CCRF-CEM/VBL100 cells = test: cells; details: Homo sapiens
[2] = Cytotoxicity (XTT, 72 hr) in HCT116 cells; details: human
Procedure: All drug exposures were for 72 hr and cytotoxicity was measured by XTT tetrazolium dye assay.

[3] = system: KBV-1 (vinblastine resistant) tumor cell lines; details: in words; cited from earlier work
CCRF-CEM cells [4] = test: Accumulation of VP-16 in CCRF-CEM cells preloaded with [3H]VP-16; details: Homo sapiens, 0.5 h, read-out: increase of intracellular accumulation of VP-16
CCRF-CEM cells [5] = test: Influx of [3H]VP-16 in CCRF-CEM cells; type: cell-based, human; details: Homo sapiens, CCRF-CEM, 0.5 h, read-out: increase of VP-16 accumulation
P388/DX = test: Survival time evaluation for BDF mice bearing P388/DX; details: for survival time: individual mice
CCRF/VM-1 cells = test: Intracellular accumulation of VP-16 in CCRF/VM-1 cells; details: Homo sapiens, 0.5 h, read-out: increase of VP-16 accumulation
P388/0 = test: Survival time evaluation for BDF mice bearing P388/0; details: for survival time: individual mice
From the text: ^a Male BDF mice were inoculated with p388/0, 10E6 cells/mouse, I.P.

DC-3F/ADX cells = test: Cytotoxicity toward DC-3F/ADX cells; type: cell-based, hamster
[6] = system: vinblastine-resistant CCRF-CEM cells (CCRF-CEM/VBL100); test: Two drug combination study of vinblastine and 5-N-acetylardeemin on vinblastine-resistant CCRF-CEM, 72 hr, XTT assay; type: cell-based, human
From the text: Vinblastine-resistant CCRF-CEM Cell Line at 72-HR Exposure Time.
Based on XTT Assay. (large-scale study)

CCRF-CEM cells [7] = test: Two drug combination study of vinblastine and 5-N-acetylardeemin on CCRF-CEM, 72 hr, XTT assay; type: cell-based; details: Homo sapiens, Table 2, drug alone, read-out: Dm (median-effect concentration)
From the text: CCRF-CEM Cell Line at 72-HR Exposure Time. Based on XTT

DC-3F hamster lung cells = test: Cytotoxicity toward DC-3F hamster lung cells; details: Mesocricetus auratus, DC3F
[8] = system: vinblastine-resistant CCRF-CEM cells (CCRF-CEM/VBL100); test: Two drug combination study of vinblastine and 5-N-acetylardeemin on vinblastine-resistant CCRF-CEM, 72 hr, XTT assay; type: cell-based, human; set-up: dose of drug at FA (drug alone): unit not given here; details: for Dose reduction index / dose of drug at FA (drug alone): Table 3
DC-3F/ADII cells [9] = system: DC-3F/ADII cells
P388/DX leukemic cells = test: Drug combination of adriamycin and 5-N-acetyl-ardeemin against P388/DX cell growth (XTT); type: cell-based; details: drug alone
From the text: | microplate, 25,000 cell/well, N = 2.

P388 leukemic cells = test: Drug combination of adriamycin and 5-N-acetyl-ardeemin against P388 cell growth (XTT); details: Mus musculus, P388, drug alone
From the text: microplate, 15,000 cell/well, N = 2. Platting cells on day 1, add drugs o
day 2 and XTT assay on day 5.

CCRF-CEM cells [10] = test: Intracellular accumulation of [3H]vinblastine in CCRF-CEM cells; type: cell-based, human; details: 30 μM
Procedure: as §1, §2, §3, §4, §5, §6

DC-3F/ADII cells [11] = test: cells; details: Mesocricetus auratus, DC3F
CCRF-CEM cells [12] = test: Cytotoxicity / growth inhibition of CCRF-CEM leukemic cells; details: Homo sapiens
[13] = read-out: IC50 for inhibiting cell growth, Table 7, DC-3F/SDII

C=CC(C)(C)[C@@]12C[C@H]3C(=O)N4[C@@H](C[C@@]5(C(C)(C)C=C)c6ccccc6N[C@@H]45)C(=O)N3[C@@H]1Nc1ccccc12 [Amauromine, amauromine]
vasodilator activity [1]: vasodilator

C=CC(C)(C)C12CC3c4nc5ccccc5c(=O)n4C(C)C(=O)N3C1N(C(C)=O)c1ccccc12 (centres unmarked) [5-N-Acetylardeemin]
% ILS (P388/DX tumor): 0%
MST (P388/DX tumor): 7.55 days
Days survived (P388/DX tumor; individual mice 1-5): 6.5 days and 7.25 days and 8.0 days
solubility (Solubility): diminished solubility
[3H]vinblastine accumulation (CCRF-CEM/VLB-100 cells; washed): 12.78 fmole/10^3 cells
[3H]vinblastine accumulation (CCRF-CEM/VLB-100 cells; without wash): 35.44 fmole/10^3 cells
% ILS (P388/O tumor): +2%
MST (P388/O tumor): 7.75 days
Days survived (P388/O tumor; individual mice 1-5): 8.5 days and 7.0 days and 8.25 days and 6.5 days
IC50 (CCRF-CEM/VM-1 cells): 39.4 µM
IC50 (CCRF-CEM/VBL100 cells; Table 6, CCRF-CEM/VBL): 6.99 µM
IC50 (CCRF-CEM/VBL100 cells; read-out: IC50 of reversing agent, Table 6B, CCRF-CEM/VBL): 18.1 µM
MNTC at 72 h [2]: ≥ 2200 nM
reversal of multidrug resistance [3]: one of the most potent known agents for reversal of multidrug resistance
fold induction at 30 µM (CCRF-CEM cells [4]): 3.9
activation at 30 µM (CCRF-CEM cells [5]): 66%
% ILS (P388/DX; 5N-acetylardeemin 3.33 mg/kg): 5%
MST (P388/DX; 5N-acetylardeemin 3.33 mg/kg): 7.63
survival time (P388/DX; 5N-acetylardeemin 3.33 mg/kg): 6.5 and 7.0 and 8.0 and 9.0
% ILS (P388/DX; 5N-acetylardeemin 10 mg/kg): 2%
MST (P388/DX; 5N-acetylardeemin 10 mg/kg): 7.42
survival time (P388/DX; 5N-acetylardeemin 10 mg/kg): 7.0 and 7.25 and 8.0
% ILS (P388/DX; 5N-acetylardeemin 30 mg/kg): -7%
MST (P388/DX; 5N-acetylardeemin 30 mg/kg): 6.75
survival time (P388/DX; 5N-acetylardeemin 30 mg/kg): 6.5 and 7.0
fold induction at 30 µM (CCRF/VM-1 cells): 1.95
% ILS (P388/0; 5N-acetylardeemin 3.33 mg/kg): -2%
MST (P388/0; 5N-acetylardeemin 3.33 mg/kg): 7.25
survival time (P388/0; 5N-acetylardeemin 3.33 mg/kg): 6.0 and 7.0 and 8.0
% ILS (P388/0; 5N-acetylardeemin 10 mg/kg): -10%
MST (P388/0; 5N-acetylardeemin 10 mg/kg): 6.67
survival time (P388/0; 5N-acetylardeemin 10 mg/kg): 60. and 6.5 and 7.5
% ILS (P388/0; 5N-acetylardeemin 30 mg/kg): -16%
MST (P388/0; 5N-acetylardeemin 30 mg/kg): 6.25
survival time (P388/0; 5N-acetylardeemin 30 mg/kg): 6.0 and 6.5
IC50 (DC-3F/ADX cells; DC3F/ADX, DC-3F/ADX): 3.69 µM
(C)/(A) (DC-3F/ADX cells; IC50 ratio DC-3F/ADX to DC-3F, * collaterally sensitive): 0.49 X
dose reduction in combination ([6]; 1:2000 ratio, at 98.4% inhibition): 55 fold
IC50 ([6]; Homo sapiens, CCRF-CEM, Table 4 (large-scale study), drug alone, read-out: Dm (median-effect concentration)): 29.8 µM
IC50 (CCRF-CEM cells [7]): 18.8 µM
IC50 (DC-3F hamster lung cells; read-out: IC50 (A), mean ± spread, mean of the determinations): 7.51 ± 2.58 µM
IC50 (DC-3F hamster lung cells; read-out: IC50 for inhibiting cell growth, Table 7, DC-3F): 3.74 µM
IC50 (DC-3F hamster lung cells; relative cytotoxicity, DC-3F): 5.06 µM
IC50 ([8]; Homo sapiens, CCRF-CEM, Table 3, drug alone, read-out: Dm (median-effect concentration)): 19.4 µM
Dose reduction index ([8]; FA .9843): 55.57
dose of drug at FA (drug alone) ([8]; FA .9843): 555.6899
Dose reduction index ([8]; FA .9861): 61.43
dose of drug at FA (drug alone) ([8]; FA .9861): 614.2689
Dose reduction index ([8]; FA .9898): 79.19
dose of drug at FA (drug alone) ([8]; FA .9898): 791.8969
(B)/(A) (DC-3F/ADII cells [9]; IC50 ratio DC-3F/ADII to DC-3F, * collaterally sensitive): 2.2 X
IC50 (DC-3F/ADII cells [9]; [13]): 1.59 µM
IC50 (P388/DX leukemic cells): 65.9 µM
IC50 (P388 leukemic cells): 43.7 µM
[3H]vinblastine accumulation (CCRF-CEM cells [10]; washed): 32.73 fmole/10^3 cells
[3H]vinblastine accumulation (CCRF-CEM cells [10]; without wash): 37.45 fmole/10^3 cells
IC50 (DC-3F/ADII cells [11]; read-out: IC50 (B), DC-3F/ADII): 16.8 µM
IC50 (DC-3F/ADII cells [11]; [13]): 1.07 µM
IC50 (CCRF-CEM cells [12]; Table 6, CCRF-CEM): 17.2 µM
IC50 (CCRF-CEM cells [12]; human leukemic CCRF-CEM cells): 29.8 µM
IC50 (CCRF-CEM cells [12]; read-out: IC50 of reversing agent, Table 6B, CCRF-CEM): 29.2 µM

Source: US6147076A, “Analogues of N-acetylardeemin, method of preparation and uses thereof” (priority 1996, dated 2000)
